Values after ≈ are worked out from the molar mass of the structure shown.
Assays:
Assay type in all cases: cell-based
[1] = tested on: Candida albicans ATCC 10231 (A); test: MIC determination by in vitro antifungal assay; details: ATCC10231, 48 h, read-out: MIC (MIC-0)
[2] = tested on: C. albicans ATCC 64124(R) (B); test: MIC determination by in vitro antifungal assay; details: Candida albicans, ATCC64124, 48 h, read-out: MIC (MIC-0)
[3] = tested on: C. albicans ATCC MYA-2876(S) (C); test: MIC determination by in vitro antifungal assay; details: Candida albicans, 48 h, read-out: MIC (MIC-0)
[4] = tested on: C. albicans ATCC 90819(R) (D); test: MIC determination by in vitro antifungal assay; details: Candida albicans, ATCC90819, 48 h, read-out: MIC (MIC-0)
[5] = tested on: C. albicans ATCC MYA-2310(S) (E); test: MIC determination by in vitro antifungal assay; details: Candida albicans, 48 h, read-out: MIC (MIC-0)
[6] = tested on: C. albicans ATCC MYA-1237(R) (F); test: MIC determination by in vitro antifungal assay; details: Candida albicans, 48 h, read-out: MIC (MIC-0)
[7] = tested on: C. albicans ATCC MYA-1003(R) (G); test: MIC determination by in vitro antifungal assay; details: Candida albicans, 48 h, read-out: MIC (MIC-0)
[8] = tested on: Aspergillus flavus ATCC MYA-3631 (K); test: MIC determination against filamentous fungi; details: 48 h, read-out: MIC (MIC-0)
[9] = tested on: Aspergillus nidulans ATCC 38163 (L); test: MIC determination against filamentous fungi; details: ATCC38163, 48 h, read-out: MIC (MIC-0)
[10] = tested on: Aspergillus terreus ATCC MYA-3633 (M); test: MIC determination against filamentous fungi; details: 48 h, read-out: MIC (MIC-0)
Hemolytic activity assay = details: mouse, murine red blood cells (mRBCs)
[11] = tested on: C. albicans, non-albicans Candida, and Aspergillus strains; test: Antifungal activity over the panel of 13 fungal strains; details: for MIC: read-out: antifungal activity class based on MIC values; for antifungal activity (in words): overall, fungal strains tested (27 except strains K and L); for antifungal activity class based on MIC values: against all fungal strains tested (5 and 6 except strain K)

SMILES | MIC [1] [µg/mL] | MIC [2] [µg/mL] | MIC [3] [µg/mL] | MIC [4] [µg/mL] | MIC [5] [µg/mL] | MIC [6] [µg/mL] | MIC [7] [µg/mL] | MIC [8] [µg/mL] | MIC [9] [µg/mL] | MIC [10] [µg/mL] | MIC [11] [µg/mL] | antifungal activity class based on MIC values [11] | hemolysis at 60 min, 7.8 µg/mL (Hemolytic activity assay) [%] | antifungal activity (in words) [11]
CCCCCCCCCCCCCCN1CCOCC1 [Compound 10, 4-Tetradecyl Morpholine] | > 31.3 | > 31.3 | > 31.3 | > 31.3 | > 31.3 | > 31.3 | > 31.3 | > 31.3 | > 31.3 | > 31.3 | ≥ 31.3 |  |  | 
OC(CNCCN1CCOCC1)(Cn1cncn1)c1ccc(F)cc1F (stereo not shown) [Compound 28, 2-(2,4-Difluorophenyl)-1-(1H-1,2,4-triazol-1-yl)-3-(4-(2-aminoethyl)morpholine)propan-2-ol] | 31.3 (≈ 85.2 µM) | 31.3 (≈ 85.2 µM) | 31.3 (≈ 85.2 µM) | > 31.3 | > 31.3 | 31.3 (≈ 85.2 µM) | > 31.3 | > 31.3 | > 31.3 | > 31.3 |  |  |  | inactive
CCCCCCCCCCN1CCNCC1 [Compound 5, 1-Decyl Piperazine] | 15.6 (≈ 68.9 µM) | 15.6 (≈ 68.9 µM) | 15.6 (≈ 68.9 µM) | 15.6 (≈ 68.9 µM) | 15.6 (≈ 68.9 µM) | 15.6 (≈ 68.9 µM) | 15.6 (≈ 68.9 µM) | 31.3 (≈ 138 µM) | 15.6 (≈ 68.9 µM) | 15.6 (≈ 68.9 µM) |  | moderately active |  | 
CCCCCCCCCN1CCNCC1 [Compound 4, 1-Nonyl Piperazine] | 31.3 (≈ 147 µM) | > 31.3 | > 31.3 | 31.3 (≈ 147 µM) | 31.3 (≈ 147 µM) | 31.3 (≈ 147 µM) | > 31.3 | 31.3 (≈ 147 µM) | > 31.3 | > 31.3 | ≥ 31.3 |  |  | 
Fc1ccc(C2(Cn3cncn3)CO2)c(F)c1 (stereo not shown) [Compound 14, 1-[[2-(2,4-Difluorophenyl)-2-oxiranyl]methyl]-1H-1,2,4-triazole] | > 31.3 | > 31.3 | > 31.3 | > 31.3 | > 31.3 | > 31.3 | > 31.3 | > 31.3 | > 31.3 | > 31.3 |  |  |  | inactivity
CCCCCCCCCCCN1CCNCC1 [Compound 6, 1-Undecyl Piperazine] | 7.8 (≈ 32.4 µM) | 7.8 (≈ 32.4 µM) | 15.6 (≈ 64.9 µM) | 7.8 (≈ 32.4 µM) | 7.8 (≈ 32.4 µM) | 7.8 (≈ 32.4 µM) | 15.6 (≈ 64.9 µM) | 31.3 (≈ 130 µM) | 15.6 (≈ 64.9 µM) | 15.6 (≈ 64.9 µM) |  | moderately active |  | 
OC(CN1CCOCC1)(Cn1cncn1)c1ccc(F)cc1F (stereo not shown) [Compound 27, 2-(2,4-Difluorophenyl)-1-(1H-1,2,4-triazol-1-yl)-3-(mopholine)-propan-2-ol] | > 31.3 | > 31.3 | > 31.3 | 3.9 to 31.3 (≈ 12 to 96.5 µM) | 7.8 to 31.3 (≈ 24 to 96.5 µM) | > 31.3 | 31.3 (≈ 96.5 µM) |  | 1.95 (≈ 6.01 µM) | 15.6 (≈ 48.1 µM) |  |  |  | inactive
CCCCCN1CCN(CC(O)(Cn2cncn2)c2ccc(F)cc2F)CC1 (stereo not shown) [Compound 17, 2-(2,4-Difluorophenyl)-1-(1H-1,2,4-triazol-1-yl)-3-(4-pentylpiperazine)propan-2-ol] | > 31.3 | > 31.3 | > 31.3 | 31.3 (≈ 79.5 µM) | > 31.3 | > 31.3 | > 31.3 | > 31.3 | > 31.3 | > 31.3 |  |  |  | basically inactive
CCCCCN1CCNCC1 [Compound 2, N-pentylpiperazine] | > 31.3 | > 31.3 | > 31.3 | > 31.3 | > 31.3 | > 31.3 | > 31.3 | > 31.3 | > 31.3 | > 31.3 | ≥ 31.3 |  |  | 
CN1CCNCC1 [Compound 1, N-methylpiperazine] | > 31.3 | > 31.3 | > 31.3 | > 31.3 | > 31.3 | > 31.3 | > 31.3 | > 31.3 | > 31.3 | > 31.3 | ≥ 31.3 |  |  | 
CCCCCCCCN1CCNCC1 [Compound 3, 1-Octyl Piperazine] | > 31.3 | > 31.3 | > 31.3 | > 31.3 | > 31.3 | > 31.3 | > 31.3 | > 31.3 | > 31.3 | > 31.3 |  |  |  | 

Molecules with a lower MIC [1], results first:

MIC [1] [µg/mL] | MIC [2] [µg/mL] | MIC [3] [µg/mL] | MIC [4] [µg/mL] | MIC [5] [µg/mL] | MIC [6] [µg/mL] | MIC [7] [µg/mL] | MIC [8] [µg/mL] | MIC [9] [µg/mL] | MIC [10] [µg/mL] | MIC [11] [µg/mL] | antifungal activity class based on MIC values [11] | SMILES | hemolysis at 60 min, 7.8 µg/mL (Hemolytic activity assay) [%] | antifungal activity (in words) [11]
1.95 (≈ 3.86 µM) | 7.8 (≈ 15.4 µM) | 1.95 (≈ 3.86 µM) | 1.95 (≈ 3.86 µM) |  |  |  | 0.975 (≈ 1.93 µM) | 0.975 (≈ 1.93 µM) | 0.975 (≈ 1.93 µM) |  |  | CCCCCCCCCCCCCN1CCN(CC(O)(Cn2cncn2)c2ccc(F)cc2F)CC1 (stereo not shown) [Compound 23, 2-(2,4-Difluorophenyl)-1-(1H-1,2,4-triazol-1-yl)-3-(4-tridecylpiperazine)propan-2-ol] |  | 
1.95 (≈ 3.75 µM) | 31.3 (≈ 60.2 µM) | 7.8 (≈ 15 µM) | 1.95 (≈ 3.75 µM) | 3.9 (≈ 7.5 µM) | 3.9 (≈ 7.5 µM) | 1.95 (≈ 3.75 µM) | 0.48 (≈ 0.924 µM) | 1.95 (≈ 3.75 µM) | 0.975 (≈ 1.88 µM) |  |  | CCCCCCCCCCCCCCN1CCN(CC(O)(Cn2cncn2)c2ccc(F)cc2F)CC1 (stereo not shown) [Compound 24, 2-(2,4-Difluorophenyl)-1-(1H-1,2,4-triazol-1-yl)-3-(4-tetradecylpiperazine)propan-2-ol] | > 50 | 
1.95 (≈ 4.08 µM) | 15.6 (≈ 32.7 µM) | 7.8 (≈ 16.3 µM) | 15.6 (≈ 32.7 µM) | 15.6 (≈ 32.7 µM) | 15.6 (≈ 32.7 µM) | 15.6 (≈ 32.7 µM) | 1.95 (≈ 4.08 µM) | 1.95 (≈ 4.08 µM) | 1.95 (≈ 4.08 µM) |  |  | CCCCCCCCCCCN1CCN(CC(O)(Cn2cncn2)c2ccc(F)cc2F)CC1 (stereo not shown) [Compound 21, 2-(2,4-Difluorophenyl)-1-(1H-1,2,4-triazol-1-yl)-3-(4-undecylpiperazine)propan-2-ol] |  | 
0.975 (≈ 2.17 µM) | 7.8 (≈ 17.3 µM) | 3.9 (≈ 8.67 µM) | 7.8 (≈ 17.3 µM) | 15.6 (≈ 34.7 µM) | 15.6 (≈ 34.7 µM) | 15.6 (≈ 34.7 µM) | 0.48 (≈ 1.07 µM) | 0.975 (≈ 2.17 µM) | 1.95 (≈ 4.34 µM) |  |  | CCCCCCCCCN1CCN(CC(O)(Cn2cncn2)c2ccc(F)cc2F)CC1 (stereo not shown) [Compound 19, 2-(2,4-Difluorophenyl)-1-(1H-1,2,4-triazol-1-yl)-3-(4-nonylpiperazine)propan-2-ol] |  | 
0.975 (≈ 0.892 µM) | 0.24 (≈ 0.22 µM) | 0.06 (≈ 0.0549 µM) | 0.12 (≈ 0.11 µM) | 0.12 (≈ 0.11 µM) | 0.24 (≈ 0.22 µM) | 0.48 (≈ 0.439 µM) | > 31.3 | > 31.3 | > 31.3 |  |  | CC[C@H](C)C[C@H](C)CCCCCCCCC(=O)N[C@H]1C[C@@H](O)[C@@H](NCCN)NC(=O)[C@@H]2[C@@H](O)CCN2C(=O)[C@H]([C@H](O)CCN)NC(=O)[C@H]([C@H](O)[C@@H](O)c2ccc(O)cc2)NC(=O)[C@@H]2C[C@@H](O)CN2C(=O)[C@H]([C@@H](C)O)NC1=O [CAS, caspofungin, reference compound] |  | 
0.975 (≈ 3.63 µM) | 0.975 (≈ 3.63 µM) | 1.95 (≈ 7.26 µM) | 0.975 (≈ 3.63 µM) | 1.95 (≈ 7.26 µM) | 1.95 (≈ 7.26 µM) | 1.95 (≈ 7.26 µM) | 1.95 (≈ 7.26 µM) | 0.975 (≈ 3.63 µM) | 1.95 (≈ 7.26 µM) | 0.015 to 1.95 (≈ 0.0559 to 7.26 µM) |  | CCCCCCCCCCCCCN1CCNCC1 [Compound 8, 1-Tridecyl Piperazine] |  | 

— PMC5976239 (Journal of medicinal chemistry, 2017)
